Some test systems named below: A498; A549; BT-549; DU-145; HCC 2998; HCT-116; HCT-15; HT-29; Hs-578T; K562; MDA-MB-231; NCI-H522; OVCAR-8; SF-268; SF-295; SK-MEL-5; T47D; UACC-62; OVCAR-3; HOP-92.
Common to all, as to experiment: inhibition of tumour cell growth, NCI panel, 48 h

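Assay format: 96-well plates, 48-hour exposure. At the GI50, growth is halved.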 Activity calls are given as the source filed them. No stated cut-off is given here; in the data, active = GI50 up to about 1.1 µM and inactive = higher.

As to `Nc1ncnc2c1ncn2C1OC(COP(=O)(O)CP(=O)(O)O)C(O)C1O` (stereo not drawn), the GI50 in the test on A498, in the test on A549, in the test with BT-549, in the test on DU-145, in the test on HCC 2998 and in the test on HCT-116 was > 100 µM (inactive) throughout. In addition, the GI50 is more than 100 µM in the test with HCT-15; > 100 µM (inactive) with HT-29; > 100 µM (inactive) with Hs-578T; > 100 µM (inactive) with K562; > 10 µM (inactive) in the test with MDA-MB-231; > 100 µM (inactive) in the test on NCI-H522. The GI50 in the test on OVCAR-8, in the test on SF-268, with SF-295, with SK-MEL-5, with T47D and in the test on UACC-62 was > 100 µM (inactive) in each case.

As for `O=C1OC(C2Cc3cc4c(cc3C2=O)CCC4)c2ccccc21` (stereo not drawn), the GI50 was 25.9 µM (inactive) with A498; 44.7 µM (inactive) in the test on A549; > 10 µM (inactive) with BT-549; 93.1 µM (inactive) in the test on DU-145; 21.2 µM (inactive) in the test with HCC 2998; 36.6 µM (inactive) in the test on HCT-116. In addition, the GI50 with HCT-15 was 34.3 µM; in the test with HT-29, 30.6 µM (inactive); with Hs-578T, 22.5 µM (inactive); in the test with K562, 33.6 µM (inactive); in the test with MDA-MB-231, 36.6 µM (inactive); in the test with NCI-H522, 50.4 µM (inactive). For the same compound, the GI50 is 77.6 µM (inactive) in the test with OVCAR-3; 67.1 µM (inactive) in the test with OVCAR-8; 45.7 µM (inactive) in the test with SF-268; 74.5 µM (inactive) in the test with SF-295; 21.3 µM (inactive) in the test with SK-MEL-5; 71.3 µM (inactive) in the test with T47D. The GI50 with UACC-62 was 20.7 µM (inactive).

Regarding `CCOC(=O)/C(C#N)=N\Nc1ccc(-n2c(C)nc3ccc(Br)cc3c2=O)cc1`, the GI50 in the test with A498 is > 100 µM (inactive); with A549, 50.2 µM (inactive); in the test on BT-549, 88.7 µM (inactive); in the test with DU-145, 57.4 µM (inactive); in the test with HCT-116, 42.2 µM (inactive); in the test with HCT-15, 47.9 µM. The GI50 was > 100 µM (inactive) with HOP-92; 69.5 µM (inactive) in the test on HT-29; 51.3 µM (inactive) in the test on Hs-578T; 35.6 µM (inactive) with K562; > 100 µM (inactive) in the test with MDA-MB-231; 52.7 µM (inactive) in the test on OVCAR-3. Moreover, the GI50 in the test on OVCAR-8 is 68.1 µM (inactive); in the test on SF-268, 68.5 µM (inactive); in the test with SF-295, 64.7 µM (inactive); in the test with SK-MEL-5, 25.6 µM (inactive); in the test on T47D, 34.2 µM (inactive); with UACC-62, 85.5 µM (inactive).

Take `Cc1ccc2c(=O)c(C(=O)N(CCO)CCO)c[nH]c2n1`: the GI50 in the test on A498 is > 100 µM (inactive); with A549, > 100 µM (inactive); with BT-549, > 100 µM (inactive); in the test with DU-145 it was > 100 µM (inactive); in the test on HCT-116, > 100 µM (inactive); in the test on HCT-15 it was more than 100 µM. Moreover, the GI50 in the test on HT-29, with Hs-578T, in the test on K562, with MDA-MB-231, in the test with NCI-H522 and in the test on OVCAR-3 was > 100 µM (inactive) in each case. Also, the GI50 in the test with OVCAR-8, in the test with SF-268, in the test with SF-295, in the test with SK-MEL-5, with T47D and in the test with UACC-62 was > 100 µM (inactive) throughout.

Values taken from ChEMBL document CHEMBL1201862, “PubChem BioAssay data set” (2004).
